The record followed here is patent US8114904B2, “Luminescence quenchers and fluorogenic probes for detection of reactive species” (Versitech Limited & Morningside Ventures Limited, priority 2008, dated 2012).

Data set [1] can be described thus: UV-visible absorption spectrum. Type of data set: physicochemical. To be noted: pH 7.4 0.1 M phosphate buffer, 0.1% DMF. As to the method: Compound 10 obtained in Example 4 was dissolved in pH 7.4 0.1 M phosphate buffer containing 0.1% DMF as cosolvent to form a 10 μM solution.
Compound 12 obtained in Example 5 was dissolved in pH 7.4 0.1 M phosphate buffer containing 0.1% DMF as cosolvent to form a 1 μM solution.
Compound 14 obtained in Example 6 was dissolved in pH 7.4 0.1 M phosphate buffer containing 0.1% DMF as cosolvent to form a 1 μM solution.
Compound 30 obtained in Example 7 was dissolved in pH 7.4 0.1 M phosphate buffer containing 0.1% DMF as cosolvent to form a 10 μM solution. The absorption spectrum of the 10 μM solution of Compound 30 was measured.

Data set [2] is described as follows: Comparison of specificity with different ROS and RNS. Particulars: for fluorescence enhancement by peroxynitrite compared with any other ROS and RNS: 25° C. As to the method:
The reactivity of Compound 10 was compared toward different reactive oxygen species (ROS) and reactive nitrogen species (RNS), including OCl^−, H2O2, ^1O2, NO, O2^•−, ^•OH, ONOO^− and alkylperoxyl radical (ROO^•). Different reactive oxygen species and reactive nitrogen species were added independently to 5 mL of the solution of Compound 10 (10 μM in 0.1 M potassium phosphate buffer). The changes of fluorescence intensity before and after the treatment were measured. The reactive oxygen species and reactive nitrogen species were prepared as follows. • a. H2O2 (final 100 μM) was added and then stirred for 1 hour at 25° C. • b. (3-(1,4-Dihydro-1,4-epidioxy-1-naphthyl)propionic acid) (final 100 μM) was added and then stirred at 25° C. for 1 hour. • c. 2,2′-Azobis(2-amidinopropane)dihydrochloride (final 100 μM) was added and then stirred at 25° C. for 1 hour. • d. SNP (Sodium Nitroferricyanide (III) Dihydrate) (final 100 μM) was added and then stirred for 1 hour at 25° C. • e. O2^•− was generated by xanthine and xanthine oxidase. Xanthine oxidase was added firstly. After xanthine oxidase was dissolved, xanthine (final 100 μM) was added and the mixtures were stirred at 25° C. for 1 hour. • f. Ferrous chloride (final 10 μM) was added in the presence of 10 equivalences of H2O2 (100 μM). • g. ONOO^− (final 10 μM) was added at 25° C. • h. NaOCl (final 10 μM) was added at 25° C. Commercial bleach was the source of NaOCl.
The reactivity of Compound 12 was compared toward different reactive oxygen species (ROS) and reactive nitrogen species (RNS), including OCl^−, H2O2, ^1O2, NO, O2^•−, ^•OH, ONOO^− and alkylperoxyl radical (ROO^•). Different reactive oxygen species and reactive nitrogen species were added independently to 5 mL of the solution of Compound 12 (1 μM in 0.1 M potassium phosphate buffer). The changes of fluorescence intensity before and after the treatment were measured. The reactive oxygen species and reactive nitrogen species were prepared as follows: • i. H2O2 (final 100 μM) was added and then stirred for 1 hour at 25° C. • j. (3-(1,4-Dihydro-1,4-epidioxy-1-naphthyl)propionic acid) (final 100 μM) was added and then stirred at 25° C. for 1 hour. • k. 2,2′-Azobis(2-amidinopropane)dihydrochloride (final 100 μM) was added and then stirred at 25° C. for 1 hour. • l. SNP (Sodium Nitroferricyanide (III) Dihydrate) (final 100 μM) was added and then stirred for 1 hour at 25° C. • m. O2^•− was generated by xanthine and xanthine oxidase. Xanthine oxidase was added firstly. After xanthine oxidase was dissolved, xanthine (final 100 μM) was added and the mixtures were stirred at 25° C. for 1 hour. • n. Ferrous chloride (final 10 μM) was added in the presence of 10 equivalences of H2O2 (100 μM). • o. ONOO^− (final 10 μM) was added at 25° C. • p. NaOCl (final 10 μM) was added at 25° C. Commercial bleach was the source of NaOCl.
The reactivity of Compound 14 was compared toward different reactive oxygen species (ROS) and reactive nitrogen species (RNS), including OCl^−, H2O2, ^1O2, NO, O2^•−, ^•OH, ONOO^− and alkylperoxyl radical (ROO^•). Different reactive oxygen species and reactive nitrogen species were added independently to 5 mL of the corresponding solution of Compound 14 (1 μM in 0.1 M potassium phosphate buffer). The changes in fluorescence intensity before and after the treatment were measured. The reactive oxygen species and reactive nitrogen species were prepared as follows: • a. H2O2 (final 100 μM) was added and then stirred for 1 hour at 25° C. • b. (3-(1,4-Dihydro-1,4-epidioxy-1-naphthyl)propionic acid) (final 100 μM) was added and then stirred at 25° C. for 1 hour. • c. 2,2′-Azobis(2-amidinopropane)dihydrochloride (final 100 μM) was added and then stirred at 25° C. for 1 hour. • d. SNP (Sodium Nitroferricyanide (III) Dihydrate) (final 100 μM) was added and then stirred for 1 hour at 25° C. • e. O2^•− was generated by xanthine and xanthine oxidase. Xanthine oxidase was added firstly. […]

Data set [3] deals with Murine J744.1 macrophages. Description: Cell assay: detection of peroxynitrite in living cells by fluorescent microscopy. It counts as cell-based. As to the method: (§1) Murine J744.1 macrophages (ATCC, USA) were used to investigate the potential of Compound 22 (acetate form of Compound 10) for the detection of peroxynitrite in living cells. J744.1 macrophages were cultured in Dulbecco's Modified Eagle's Medium (DMEM) (Gibco) containing 10% heat-inactivated fetal bovine serum (Gibco) supplemented with 100 U/ml of penicillin and 100 μg/ml streptomycin at 37° C., 5% CO2. They were subcultured by scraping and seeded on six-well plates according to manufacture's instruction. The growth medium was changed every two to three days. Cells were grown to confluence prior to experiment. Murine J744.1 macrophages were incubated with Compound 22 (20 μM) for 1 hr and then washed three times with PBS buffer.
as §1, with “12 and 12a” for “22 (acetate form of Compound 10)”, “12 or 12a” for “22”, “buffer. […] The fluorescence was induced after treatment with LPS (lipopolysaccharide, 1 μg/ml) for 4 hrs (FIG. 9D and FIG. 10B).” for “buffer.”

The mark [4] stands for this setting: 10 μM probe in 0.1 M potassium phosphate buffer.
The mark [5] stands for this setting: 1 μM probe in 0.1 M potassium phosphate buffer.

As to `CN(c1ccc(CCC(=O)C(F)(F)F)cc1)c1cc2c(cc1Cl)C1(OC(=O)c3ccccc31)c1cc(Cl)c(O)cc1O2` (stereo not shown) [Compound 10], the absorption maximum entry in data set [1] (10 μM solution) is recorded as “about 520 nm”. For the same compound, in data set [2] (setting [4]), the “reactivity among ROS and RNS in an abiotic system” value is “much higher reactivity towards peroxynitrite”; the “fluorescence enhancement by peroxynitrite compared with any other ROS and RNS” value is “much stronger fluorescence enhancement”.

As for `CN(c1ccc(O)cc1)c1ccc2c(c1)Oc1cc(O)ccc1C21OC(=O)c2ccccc21` (stereo not shown) [Compound 12], the absorption maximum result in data set [1] (1 μM solution) is recorded as “about 515 nm”. In addition, in data set [2] (setting [5]), the “reactivity among ROS and RNS in an abiotic system” value is “much higher reactivity towards peroxynitrite”; the “fluorescence enhancement by peroxynitrite compared with any other ROS and RNS” value is reported as “much stronger fluorescence enhancement”. For the same compound, the “fluorescence after treatment with LPS” value in data set [3] (20 μM probe 1 hr, LPS 1 μg/ml for 4 hrs) is reported as “induced”. Also, in data set [3] (J744.1 macrophages), the subcellular localization entry is “may selectively localize in mitochondrials”. Further, the “fluorescence observed in the absence of stimulants” value in data set [3] (J744.1 macrophages incubated with 20 μM probe for 1 hr) is given as “very weak fluorescence”. In data set [3] (LPS-stimulated J744.1 macrophages, 20 μM), the “colocalization with mitochondrial dye MitoTracker Red CMXRos” value was “colocalized”.
